{"source": "patent US20100190711A1", "about": "“BIG GASTRIN I AS A THERAPEUTIC AGENT” (priority 2007, published 2010)", "key": {"CEM-SS cells": {"system": "CEM-SS cells", "assay": "Cytotoxicity (MTS cell viability) in the HIV-1 assay", "details": "CEM-SS cells, MTS; peptide 10 micrograms per ml"}, "HIV-1IIIB": {"system": "HIV-1IIIB", "assay": "HIV-1 antiviral assay (CPE reduction, MTS) in CEM-SS cells", "assay_type": "cell-based", "details": "peptide 10 micrograms per ml; 6 days post-infection"}, "[1]": {"assay": "Cytotoxicity (MTS cell viability) in the HIV-1 assay", "details": "human, CEM-SS cells (uninfected, cells plus peptide only)"}, "[2]": {"assay": "Cytotoxicity (CellTiter 96 cell viability) in the HCMV assay", "details": "human, MRC-5 cells (embryonal lung fibroblasts)"}, "Streptococcus pneumoniae": {"system": "Streptococcus pneumoniae", "assay_type": "cell-based", "details": "5 micrograms per ml"}, "MRSA": {"system": "MRSA", "details": "5 micrograms per ml"}, "in vitro": {"assay": "in vitro", "details": "human, HepG2-2.2.15 cells"}, "Pseudomonas aeruginosa": {"system": "Pseudomonas aeruginosa", "assay_type": "cell-based", "details": "5 micrograms per ml"}, "MRC-5 cells": {"system": "MRC-5 cells", "assay": "Cytotoxicity (CellTiter 96 cell viability) in the HCMV assay", "details": "MRC-5 cells, 6 days incubation"}}, "note": "Where a SMILES comes first, the peptide text is derived from it. [ ]: non-standard residue; d: D form. pGlu = O=C1CC[C@@H](C(=O)O)N1"}
{"smiles": "Cc1cn([C@H]2C[C@H](N=[N+]=[N-])[C@@H](CO)O2)c(=O)[nH]c1=O", "note": "[AZT, reference compound]", "values": [{"measurement": "% Cell viability", "setting": "CEM-SS cells", "value": 97, "unit": "%"}, {"measurement": "% CPE reduction in HIV-1 infected CEM-SS cells", "setting": "HIV-1IIIB", "value": 99, "unit": "%"}]}
{"smiles": "CSCC[C@H](NC(=O)[C@H](Cc1c[nH]c2ccccc12)NC(=O)CNC(=O)[C@H](Cc1ccc(O)cc1)NC(=O)[C@H](C)NC(=O)[C@H](CCC(=O)O)NC(=O)[C@H](CCC(=O)O)NC(=O)[C@H](CCC(=O)O)NC(=O)[C@H](CCC(=O)O)NC(=O)[C@H](CCC(=O)O)NC(=O)[C@H](CC(C)C)NC(=O)[C@H](Cc1c[nH]c2ccccc12)NC(=O)[C@@H]1CCCN1C(=O)CNC(=O)[C@H](CCC(N)=O)NC(=O)[C@H](CCCCN)NC(=O)[C@H](CCCCN)NC(=O)[C@H](CO)NC(=O)[C@@H]1CCCN1C(=O)[C@H](CC(=O)O)NC(=O)[C@H](C)NC(=O)[C@@H](NC(=O)[C@H](CC(C)C)NC(=O)[C@H](Cc1c[nH]cn1)NC(=O)[C@@H]1CCCN1C(=O)[C@@H]1CCCN1C(=O)CNC(=O)[C@H](CCC(N)=O)NC(=O)[C@@H]1CCCN1C(=O)CNC(=O)[C@H](CC(C)C)NC(=O)[C@@H]1CCC(=O)N1)C(C)C)C(=O)N[C@@H](CC(=O)O)C(=O)N[C@@H](Cc1ccccc1)C(N)=O", "note": "[Big Gastrin I] ([pGlu]LGPQGPPHLVADPSKKQGPWLEEEEEAYGWMDF-NH2)", "values": [{"measurement": "viability at 10 micrograms per ml", "setting": "[1]", "value": 100, "unit": "%"}, {"measurement": "viability at 144 h", "setting": "[2]", "value": 100, "unit": "%"}, {"measurement": "% inhibition", "setting": "Streptococcus pneumoniae", "value": 0.0, "unit": "%"}, {"measurement": "% inhibition", "setting": "MRSA", "value": 0.0, "unit": "%"}, {"measurement": "viability at 144 h, 10 micrograms per ml", "setting": "in vitro", "value": 88.7, "unit": "%"}, {"measurement": "% inhibition", "setting": "Pseudomonas aeruginosa", "value": 0.0, "unit": "%"}]}
{"smiles": "Nc1nc(O)c2ncn(COC(CO)CO)c2n1", "note": "[Ganciclovir, reference compound]", "values": [{"measurement": "% Cell viability", "setting": "MRC-5 cells", "value": 100, "unit": "%"}]}
{"smiles": "CC(C)(C)NC(=O)[C@@H]1CN(Cc2cccnc2)CCN1C[C@@H](O)C[C@@H](Cc1ccccc1)C(=O)N[C@H]1c2ccccc2C[C@H]1O", "note": "[Indinavir, indinavir]", "values": [{"measurement": "% CPE reduction in HIV-1 infected CEM-SS cells", "setting": "HIV-1IIIB", "value": 100, "unit": "%"}]}
